Laboratory results as given in US20130072459A1, “PHARMACEUTICAL COMPOSITION FOR THE PREVENTION OR THE TREATMENT OF NON-ALCOHOLIC FATTY LIVER DISEASE AND THE METHOD FOR PREVENTION OR TREATMENT OF NON-ALCOHOLIC FATTY LIVER DISEASE USING THE SAME” (priority 2010, published 2013).

Key:
HepG2 cells = assay: Free fatty acid-induced intracellular fat accumulation, Nile Red staining; type: cell-based, human; settings: for free fatty acid-induced fat accumulation in hepatocytes, result in words: FIG. 10; for inhibition at 1 µM: Homo sapiens, HepG2, 0.5 mM free fatty acid, 24 hours, read-out: inhibitory effects on free fatty acid-induced fat accumulation
Method: By a combined treatment of free fatty acid and a drug, inhibitory effects of individual drugs on intracellular fat accumulation were quantified using a triglyceride staining method. The human hepatoma cell line, HepG2 cells were cultured in a minimum essential medium (MEM) containing 10(v/v) % fetal bovine serum for 48 hours. […] For the negative control group, a MEM containing 1(v/v) % bovine serum albumin was treated with 0.1(v/v) % dimethyl sulfoxide with no addition of free fatty acid. After the culture was complete, the medium was removed and the cells were washed with a phosphate buffer. […] After the staining was complete, the supernatant was discarded and replaced with a phosphate buffer, followed by measurement of fluorescence intensities under conditions of a 488 nm excitation wavelength and a 550 nm emission wavelength. Then, in order to correct a deviation according to the cell count, a phosphate buffer containing 10 μM resazurin (Sigma) dissolved therein was added to the same well. Thereafter, before and after the reaction at 37° C. for 1 hour under light-shielded conditions, fluorescence intensities were measured using a fluorometer under conditions of a 535 nm excitation wavelength and a 580 nm emission wavelength, whereby an increase in fluorescence intensity due to resorufin reduced and formed by the intracellular mitochondrial activity was measured. Using the value of a fluorescence intensity of Nile Red corrected in terms of an increase in fluorescence intensity due to the reduction of resazurin, the experimental results were expressed as a percentage for the fat accumulation increased by a treatment with free fatty acid, as compared to the negative control group.

TGF-β1 = TGF-β1 mRNA expression in liver, CCl4-induced acute hepatic damage mouse model; type: in vivo, C57BL/6 mice; settings: for TGF-β1 expression inhibition rate (% CCl4 control group) / TGF-β1 expression (normalized by actin): 3 days; for TGF-β1 expression (normalized by actin): CCl4 0.1 ml/kg i.p.; for maximum decrement in TGF-β1 mRNA expression of the liver relative to the CCl4 control group: maximum over the doses tested; for expression of TGF-β1 mRNA of the liver, result in words: vs CCl4 group
Method: In order to investigate inhibitory effects of compounds of the present invention on expression of TGF-β1 which is known to play a crucial role in a fibrosis process of hepatocytes in a CCl4-induced acute hepatic damage mouse model, the following experiment was carried out. 7-week old male C57BL/6 mice were stabilized and divided into 9 groups (n=7) according to the body weight, followed by intraperitoneal administration of CCl4 (0.1 ml/kg). The normal control group was administered an olive oil. The control group was orally administered a vehicle solution (0.5% MC) once a day at a dose of 10 ml/kg, at intervals of 24 hours for 3 days. The remaining groups were orally administered once a day tartrate of Compound 1 at doses of 30, 100 and 300 mg/kg, sitagliptin phosphate (prepared according to the method described in WO2004/085378 or WO2005/003135) at doses of 100 and 300 mg/kg, and vildagliptin (Trademax, China) at doses of 100 and 300 mg/kg, respectively, according to the designated groups. 1 hour after the final oral administration, animals were dissected and the excised liver was subjected to evaluation of TGF-β1 mRNA expression. The liver tissue stored in liquid nitrogen was homogenized in a TRIZOL solution and then the total RNAs were extracted. The isolated RNAs were diluted to a concentration of 1 μg/μL in 0.1(v/v) % DEPC (diethyl pyrocarbonate), and then the RNA mixture [2 μg/μL each RNA+2 μL of 0.5 μg/μL oligo d(T)15+up to 15 μL of 0.1% DEPC water] was incubated using a PCR apparatus at 72° C. for 5 minutes, followed by quenching on ice. The mixture [1 μL of PCR nucleotide mix+5 μL of 5×MMLV RT bf.(Promega, M531A)+1 μL of […] M-MLV reverse] was prepared, and then subjected to elongation at 42° C. for 60 minutes, denaturation at 95° C. for 5 minutes and quenching at 8° C. to synthesize cDNAs which were stored at −20° C. until subsequent use. In order to carry out RT-PCR, the mixture [1 μL of 20 pmol each Primer+9.5 μL of Nuclease-free water] was prepared and then 2 μL of each cDNA was placed in sterile PCR tubes to which 12.5 μL of remix Taq™ (RR003A, TaKaRa) was then added, followed by mixing. PCR was carried out under the following conditions (Table 4), using Thermal Cycler (PTC-200, MJ Research). PCT products were electrophoresed and analyzed using an Image Analyzer (Vilber Lourmat). Using β-actin expression, the expression of a target gene TGF-β1 was subjected to normalization (FIG. 11).

ob/ob mice = assay: Plasma alanine aminotransferase in obesity animal model ob/ob mice; type: in vivo; settings: 4 weeks; for plasma alanine aminotransferase, result in words: ob/ob mice
Method: 5-week old male C57BL/6 mice (normal mouse group) and ob/ob mice (obesity mouse group) were stabilized and then divided into 6 groups according to the body weight and blood glucose level, followed by feeding with a standard diet and a drug-mixed diet. […] Therefore, in order to supply 10, 100 and 300 mg/kg which are daily target doses of tartrate of Compound 1, diets were formulated by mixing a standard diet with 0.01% by weight, 0.1% by weight and 0.3% by weight of tartrate of Compound 1 and 0.3% by weight of sitagliptin phosphate, respectively. 4 weeks after a supply of diets, animals were dissected and sera were separated. Plasma alanine aminotransferase levels were measured using a blood analyzer (Table 6).

[1] = standard diet with 0.3% drug (target 300 mg/kg/day)
[2] = standard diet with 0.01% drug (target 10 mg/kg/day)
[3] = standard diet with 0.1% drug (target 100 mg/kg/day)

SMILES	free fatty acid-induced fat accumulation in hepatocytes, result in words (HepG2 cells)	inhibition at 1 µM (HepG2 cells) [%]	TGF-β1 expression inhibition rate (% CCl4 control group) (TGF-β1; 100 mg/kg oral once a day) [%]	TGF-β1 expression (normalized by actin) (TGF-β1; 100 mg/kg oral once a day)	TGF-β1 expression inhibition rate (% CCl4 control group) (TGF-β1; 300 mg/kg oral once a day) [%]	TGF-β1 expression (normalized by actin) (TGF-β1; 300 mg/kg oral once a day)	maximum decrement in TGF-β1 mRNA expression of the liver relative to the CCl4 control group (TGF-β1) [%]	expression of TGF-β1 mRNA of the liver, result in words (TGF-β1)	plasma alanine aminotransferase, result in words (ob/ob mice)	ALT increase inhibition (%) relative to ob/ob mouse control group (ob/ob mice; [1]) [%]	ALT increment (%) relative to normal mouse group (ob/ob mice; [1]) [%]	TGF-β1 expression inhibition rate (% CCl4 control group) (TGF-β1; 30 mg/kg oral once a day) [%]	TGF-β1 expression (normalized by actin) (TGF-β1; 30 mg/kg oral once a day)	ALT increase inhibition (%) relative to ob/ob mouse control group (ob/ob mice; [2]) [%]	ALT increment (%) relative to normal mouse group (ob/ob mice; [2]) [%]	ALT increase inhibition (%) relative to ob/ob mouse control group (ob/ob mice; [3]) [%]	ALT increment (%) relative to normal mouse group (ob/ob mice; [3]) [%]
N[C@@H](CC(=O)N1CCn2c(nnc2C(F)(F)F)C1)Cc1cc(F)c(F)cc1F [sitagliptin phosphate, sitagliptin]	dose-dependent inhibition	28.7 ± 3.2	41	1.13 ± 0.19	−17	1.26 ± 0.13	41	decreased expression	reduction	15	869						
CC(C)(C)OC[C@@H]1C(=O)NCCN1C(=O)C[C@H](N)Cc1cc(F)c(F)cc1F [tartrate of Compound 1, (R)-4-[(R)-3-amino-4-(2,4,5-trifluorophenyl)-butanoyl]-3-(t-butoxymethyl)piperazin-2-one]	dose-dependent inhibition	28.7 ± 3.2	128	0.93 ± 0.10	100	1.00 ± 0.13	135	normalization	reduction	27	757	135	0.92 ± 0.13	43	610	39	653
